Measurements from US5591741A, “Fungicidal spiroheterocyclic derivatives” (American Cyanamid Company, priority 1993, dated 1997).

How the values were obtained:
[1] = test system: Plasmopara viticola; experiment: Antisporulant activity against vine downy mildew (PVA); assay type: in vivo; conditions: vine leaves, antisporulant foliar spray, 600 ppm, 750 l/ha
Summary of the method: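 Cabernet Sauvignon vines (~8 cm) inoculated on lower leaf surfaces with 5×10^4 zoosporangia/ml, held 24 h at 21° C high humidity then 24 h glasshouse. Infected leaves sprayed underside with 600 ppm compound in 1:1 water/acetone, 0.04% Tween 20, 750 l/ha; 96 h glasshouse, 24 h humidity. Sporulating leaf area rated versus control.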

[2] = test system: Phytophthora infestans; assay type: in vivo; conditions: tomato, direct protectant foliar spray
[3] = test system: Alternaria solani; experiment: Activity against tomato early blight (AS); assay type: in vivo; conditions: Table VI; tomato seedlings, contact prophylactic foliar spray, 4 days
Summary of the method: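 Foliar contact prophylactic spray on tomato seedlings (cv Outdoor Girl, second true leaf expanded) in acetone/water 50:50 with 0.04% Tween 20; 24 h at 20° C, 40% R.H., then inoculation with 10^4 spores/ml A. solani conidia. Kept moist at 21° C; lesion cover rated 4 days post-inoculation against untreated or diluent-sprayed controls.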

[4] = test system: Botrytis cinerea; experiment: Direct protectant activity against broad bean grey mould (BCB); assay type: in vivo; conditions: direct protectant foliar spray, 600 ppm, 4 days
Summary of the method: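 Broad bean plants (cv The Sutton, two leaf pairs) sprayed on upper leaf surfaces at 600 ppm, then inoculated 24 h later with 10^6 conidia/ml. Kept 4 days at 22 °C, high humidity; disease control rated from % leaf area with lesions against untreated or diluent controls.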

[5] = test system: Rhizoctonia solani; experiment: Activity against Rhizoctonia in-vitro (RSI); assay type: cell-based; conditions: 10 ppm, 10 days, 20° C., mycelial growth
Summary of the method: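 R. solani mycelial fragments (5×10^4/ml) in half-strength Potato Dextrose Broth with compound added from acetone to 10 ppm final. Mycelial growth assessed after 10 days at 20° C, rated against untreated or diluent control.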

[6] = test system: Venturia inaequalis; experiment: Activity against apple scab in-vitro (VII); assay type: cell-based; conditions: 10 ppm, 10 days, 20° C., mycelial growth
Summary of the method: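 Compound in acetone was tested at 10 ppm final in half-strength Potato Dextrose Broth inoculated with V. inaequalis mycelial fragments and spores at 5×10^4 propagules/ml. After 10 days at 20° C, mycelial growth was rated against untreated or diluent controls.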

[7] = test system: Leptosphaeria nodorum; experiment: Activity against wheat leafspot (LN); assay type: in vivo; conditions: direct therapeutic foliar spray, 600 ppm, 6-8 days
Summary of the method: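 Wheat cv Norman at single-leaf stage spray-inoculated with 1.5×10^6 conidia/ml, held 24 h at high humidity, then sprayed therapeutically with test compound at 600 ppm. Kept 6-8 days at 22° C, 70% humidity; lesion density per leaf rated against untreated or diluent-sprayed controls.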

[8] = test system: Erysiphe graminis f.sp. hordei; experiment: Direct protectant activity against barley powdery mildew (EGP); assay type: in vivo; conditions: direct protectant foliar spray, 8 days
Summary of the method: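 Barley seedlings (cv Golden Promise, single-leaf stage) were foliar-sprayed, held 24 h at 18 °C/40% RH, then dusted with mildew conidia. After 8 days at 18 °C/40% RH, sporulating leaf area was scored as a rating against untreated or diluent-sprayed controls.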

[9] = test system: Erysiphe graminis f.sp. hordei; experiment: Activity against barley powdery mildew, direct therapeutic (EGT); assay type: in vivo; conditions: direct therapeutic foliar spray, 600 ppm, up to 7 days
Summary of the method: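 Barley seedlings (cv. Golden Promise, single-leaf stage) were dusted with mildew conidia one day before a therapeutic foliar spray of 600 ppm compound. Plants were kept at 18 °C and 40% humidity for up to 7 days, and sporulating leaf area was rated against untreated or diluent-sprayed controls.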

[10] = test system: Pseudocercosporella herpotrichoides; experiment: Activity against wheat eyespot in-vitro (PHI); assay type: cell-based; conditions: 10 ppm, 10 days, 20° C., mycelial growth
Summary of the method: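 P. herpotrichoides mycelial fragments (5×10^4/ml) grown in half-strength PDB with compound at 10 ppm final, added from acetone. Incubated 10 days at 20 °C; mycelial growth rated against untreated or diluent controls.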

[11] = test system: Pyricularia oryzae; assay type: in vivo; conditions: rice seedlings, direct therapeutic foliar spray, 600 ppm, 4-5 days

SMILES	disease control rating PVA [1]	disease control rating PIP [2]	disease control rating AS [3]	disease control rating BCB [4]	disease control rating RSI [5]	disease control rating VII [6]	disease control rating LN [7]	disease control rating EGP [8]	disease control rating EGT [9]	disease control rating PHI [10]	disease control rating PO [11]
CCCCc1ccc(CNC2COC3(CCC(C(C)(C)C)CC3)C2)cc1 (stereo not shown) [Compound 26]	0 (less than 50% disease control)	0 (less than 50% disease control)	1 (about 50-80% disease control)	0 (less than 50% disease control)	0 (less than 50% disease control)	1 (about 50-80% disease control)	0 (less than 50% disease control)	2 (greater than 80% disease control)	2 (greater than 80% disease control)	1 (about 50-80% disease control)	0 (less than 50% disease control)
CCCCCCNC1COC2(CCC(C(C)(C)C)CC2)C1 (stereo not shown) [Compound 27]	0 (less than 50% disease control)	0 (less than 50% disease control)	0 (less than 50% disease control)	0 (less than 50% disease control)	0 (less than 50% disease control)	1 (about 50-80% disease control)	0 (less than 50% disease control)	2 (greater than 80% disease control)	2 (greater than 80% disease control)	1 (about 50-80% disease control)	0 (less than 50% disease control)
Cc1ccc(CNC2COC3(CCC(C(C)(C)C)CC3)C2)cc1 (stereo not shown) [Compound 28]	0 (less than 50% disease control)	0 (less than 50% disease control)	0 (less than 50% disease control)	0 (less than 50% disease control)	0 (less than 50% disease control)	2 (greater than 80% disease control)	0 (less than 50% disease control)	2 (greater than 80% disease control)	2 (greater than 80% disease control)	0 (less than 50% disease control)	0 (less than 50% disease control)
CC(C)(C)C1CCC2(CC1)CC(NCc1ccc(Br)cc1)CO2 (stereo not shown) [Compound 29]	0 (less than 50% disease control)	0 (less than 50% disease control)	0 (less than 50% disease control)	0 (less than 50% disease control)	0 (less than 50% disease control)	2 (greater than 80% disease control)	0 (less than 50% disease control)	2 (greater than 80% disease control)	2 (greater than 80% disease control)	0 (less than 50% disease control)	0 (less than 50% disease control)
CC(C)(C)C1CCC2(CC1)CC(NCc1ccc(F)cc1)CO2 (stereo not shown) [Compound 30]	0 (less than 50% disease control)	0 (less than 50% disease control)	0 (less than 50% disease control)	0 (less than 50% disease control)	0 (less than 50% disease control)	2 (greater than 80% disease control)	0 (less than 50% disease control)	2 (greater than 80% disease control)	2 (greater than 80% disease control)	0 (less than 50% disease control)	0 (less than 50% disease control)
